pIC50: −log10 of the molar value.
Target: Full-length human PIM-1 (Homo sapiens, UniProt P11309)
Conditions: read-out: PIM-1 IC50; ATP 200 μM, Aktide 25 μM, enzyme 1 nM
Method: Biochemical Assay for Inhibitors of PIM-1 Kinase Activity
The inhibitory activity of putative kinase inhibitors and the potency of selected compounds were determined using a trans-phosphorylation assay.
Specific peptide or protein substrates are trans-phosphorylated by their specific ser-thr or tyr kinase in the presence of ATP traced with ^33P-γ-ATP, and in the presence of their own optimal buffer and cofactors.
At the end of the phosphorylation reaction, more than 98% unlabeled ATP and radioactive ATP is captured by an excess of the ion exchange dowex resin; the resin then settles down to the bottom of the reaction plate by gravity.
Supernatant is subsequently withdrawn and transferred into a counting plate, then evaluated by β-counting.
The buffer for PIM-1 assay was composed of HEPES 50 mM, at pH 7.5, with 10 mM MgCl2, 1 mM DTT, 3 μM NaVO3, and 0.2 mg/ml BSA
ATP concentration: 200 μM
Enzyme concentration: 1 nM
The test mix consisted of:
1) 3× Enzyme mix (done in Kinase Buffer 3×), 5 μL/well
2) 3× substrate and ATP mix (done in ddH2O), together with ^33P-γ-ATP, 5 μL/well
3) 3× test compounds (diluted into ddH2O-3% DMSO)-5 μL/well
a) for percent inhibition studies (HTS), individual dilution plates at 1 mM are diluted at a 3× concentration (30 μM) in ddH2O (3% DMSO=final concentration) using a Beckman NX automated pipetting platform. The same instrument is used for distributing the diluted mother plates into the test plates.
An automated station for serial dilutions (Biomek FX, Beckman) is used for producing 1:3 dilutions in 100% DMSO, from line A1 to A10, and for all the seven compounds in the column.
At the start of the run, the robot aspirates 5 μL of ATP mix, makes an air gap inside the tips (2 μL) and aspirates 2 μL of PIM mix. The following dispensation into the plates allows the kinase reaction to start upon 3 cycles of mixing, done by the robot itself.
The robot incubates the plates for 60 minutes at room temperature, and then stops the reaction by pipetting 70 μL of dowex resin suspension into the reaction mix. Three cycles of mixing are done immediately after the addition of the resin.
Another mixing cycle is performed after all the plates are stopped, this time using normal tips: the plates are then allowed to rest for about one hour in order to maximize ATP capture.
Data are analysed by an internally customized version of the SW package “Assay Explorer” that provides either % inhibition for primary assays or sigmoidal fittings of the ten-dilutions curves for IC50 determination in the secondary assays/hit confirmation routines.

Chain of Full-length human PIM-1 (P11309 whole entry): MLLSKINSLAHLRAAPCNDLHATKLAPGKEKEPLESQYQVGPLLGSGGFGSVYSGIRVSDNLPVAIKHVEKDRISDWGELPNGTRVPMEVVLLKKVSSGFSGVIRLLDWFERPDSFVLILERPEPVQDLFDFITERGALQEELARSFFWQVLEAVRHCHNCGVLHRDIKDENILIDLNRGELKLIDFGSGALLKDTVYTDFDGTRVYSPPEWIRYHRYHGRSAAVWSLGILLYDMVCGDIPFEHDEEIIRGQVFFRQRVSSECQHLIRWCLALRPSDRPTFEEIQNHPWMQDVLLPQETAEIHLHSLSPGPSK

Compound	pIC50
O=C(CC1CNC(=O)c2cc(-c3ccccc3F)cn21)NCc1ccco1 (stereo not drawn) [Compound A128-M-B40]	6.60
CCCNC(=O)CC1CNC(=O)c2cc(-c3cccc(Cl)c3)cn21 (stereo not drawn) [Compound A150-M-B25]	6.35
O=C(C[C@H]1CNC(=O)c2cc(-c3cccc(F)c3)cn21)N[C@H](CO)C1CCCCC1 [A127-M-B61 isomer S]	7.70
O=C(CC1CNC(=O)c2cc(-c3ccsc3)cn21)NCC1CCCCC1 (stereo not drawn) [Compound A33-M-B22]	6.34
O=C(C[C@@H]1CNC(=O)c2cc(-c3cc(F)ccc3F)cn21)N[C@H](CO)c1ccccc1 [A158-M-B62 isomer R]	6.26
CC(C)CCNC(=O)CC1CNC(=O)c2cc(-c3ccc(F)cc3F)cn21 (stereo not drawn) [Compound A151-M-B32]	6.31
O=C(C[C@@H]1CNC(=O)c2cc(-c3ccnc(F)c3)cn21)N[C@H](CO)c1ccccc1 [A157-M-B62 isomer R]	5.94
COC(=O)c1cccc(-c2cc3n(c2)C(CC(=O)NCc2cccc(F)c2)CNC3=O)c1 (stereo not drawn) [Compound A142-M-B30]	5.60
O=C(CC1CNC(=O)c2cc(-c3ccc(F)cc3F)cn21)NCc1ccncc1 (stereo not drawn) [Compound A151-M-B39]	5.39
O=C(CC1CNC(=O)c2cc(-c3cccc(C(F)(F)F)c3)cn21)NCc1ccccc1 (stereo not drawn) [Compound A133-M-B14]	6.09
COCCCNC(=O)CC1CNC(=O)c2cc(-c3cccc(Cl)c3)cn21 (stereo not drawn) [Compound A150-M-B42]	6.23
O=C(CC1CNC(=O)c2cc(-c3ccc(F)c(F)c3)cn21)NCc1ccc(F)cc1 (stereo not drawn) [Compound A139-M-B30]	6.39
CN1CCN(C(=O)CC2CNC(=O)c3cc(-c4cccc(C(F)(F)F)c4)cn32)C(c2ccccc2)C1 (mixture of isomers) [Compound A133-M-B63]	5.60
CC(C)CCNC(=O)CC1CNC(=O)c2cc(-c3cccc(Cl)c3)cn21 (stereo not drawn) [Compound A150-M-B32]	6.64
O=C(CC1CNC(=O)c2cc(-c3cccc(F)c3)cn21)NCc1ccncc1 (stereo not drawn) [Compound A127-M-B39]	6.24
CN1CCN(C(=O)CC2CNC(=O)c3cc(-c4cc(F)ccc4F)cn32)C(c2ccccc2)C1 (mixture of isomers) [Compound A158-M-B63]	6.40
O=C(CC1CNC(=O)c2cc(-c3cccc(C(F)(F)F)c3)cn21)NCc1ccc(F)cc1 (stereo not drawn) [Compound A133-M-B30]	6.21
CC(C)CCNC(=O)CC1CNC(=O)c2cc(-c3cccc(F)c3)cn21 (stereo not drawn) [Compound A127-M-B32]	6.21
O=C(CC1CNC(=O)c2cc(-c3cccc(Cl)c3)cn21)NC1CCCC1 (stereo not drawn) [Compound A150-M-B26]	6.62
O=C(CC1CNC(=O)c2cc(-c3ccc(F)c(F)c3)cn21)NCc1ccco1 (stereo not drawn) [Compound A139-M-B40]	6.89
O=C(C[C@@H]1CNC(=O)c2cc(-c3cccc(C(F)(F)F)c3)cn21)N[C@H](CO)C1CCCCC1 [A133-M-B61 isomer R]	5.23
O=C(CC1CNC(=O)c2cc(-c3cccc(Cl)c3)cn21)NCc1ccccc1 (stereo not drawn) [Compound A150-M-B14]	6.85

Compound	pIC50
O=C(CC1CNC(=O)c2cc(-c3cccc(Cl)c3)cn21)NC1CCCCC1 (stereo not drawn) [Compound A150-M-B24]	6.68
O=C(C[C@H]1CNC(=O)c2cc(-c3cccc(F)c3)cn21)N[C@H](CO)c1ccccc1 [A127-M-B62 isomer S]	7.05
O=C(CC1CNC(=O)c2cc(-c3cccc(Cl)c3)cn21)NCCN1CCOCC1 (stereo not drawn) [Compound A150-M-B38]	5.97
O=C(CC1CNC(=O)c2cc(-c3ccsc3)cn21)NCc1cccc(F)c1 (stereo not drawn) [Compound A33-M-B30]	6.24
O=C(CC1CNC(=O)c2cc(-c3ccc(F)cc3)cn21)NCC1CCCCC1 (stereo not drawn) [Compound A129-M-B22]	6.89
O=C(C[C@@H]1CNC(=O)c2cc(-c3cc(F)ccc3F)cn21)N[C@H](CO)C1CCCCC1 [A158-M-B61 isomer R]	6.07
O=C(C[C@H]1CNC(=O)c2cc(-c3cccc(C(F)(F)F)c3)cn21)N[C@H](CO)C1CCCCC1 [A133-M-B61 isomer S]	7.15
O=C(CC1CNC(=O)c2cc(-c3ccc4c(c3)OCO4)cn21)NCC1CCCCC1 (stereo not drawn) [Compound A132-M-B22]	6.44
Cc1ccccc1NC(=O)CC1CNC(=O)c2cc(-c3cccc(Cl)c3)cn21 (stereo not drawn) [Compound A150-M-B36]	5.86
O=C(CC1CNC(=O)c2cc(-c3ccc(F)c(F)c3)cn21)NCc1ccccc1 (stereo not drawn) [Compound A139-M-B14]	6.66
O=C(CC1CNC(=O)c2cc(-c3ccc(F)c(F)c3)cn21)NCc1ccncc1 (stereo not drawn) [Compound A139-M-B39]	6.01
O=C(CC1CNC(=O)c2cc(-c3cn[nH]c3)cn21)NCC1CCCCC1 (stereo not drawn) [Compound A144-M-B22]	6.32
O=C1NCC(CC(=O)N2CCCCCC2)n2cc(-c3cccc(Cl)c3)cc21 (stereo not drawn) [Compound A150-M-B45]	6.24
CC(C)(C)NC(=O)CC1CNC(=O)c2cc(-c3cccc(Cl)c3)cn21 (stereo not drawn) [Compound A150-M-B43]	6.10
O=C(CC1CNC(=O)c2cc(-c3ccccc3F)cn21)NCc1cccc(F)c1 (stereo not drawn) [Compound A128-M-B30]	6.57
O=C(CC1CNC(=O)c2cc(-c3cn[nH]c3)cn21)NCc1ccc(F)cc1 (stereo not drawn) [Compound A144-M-B30]	5.96
O=C(C[C@@H]1CNC(=O)c2cc(-c3ccnc(F)c3)cn21)N[C@H](CO)C1CCCCC1 [A157-M-B61 isomer R]	6.57
O=C(CC1CNC(=O)c2cc(-c3ccc(F)c(F)c3)cn21)NCC1CCCCC1 (stereo not drawn) [Compound A139-M-B22]	7.05
O=C(CC1CNC(=O)c2cc(-c3cn[nH]c3)cn21)NCc1ccccc1 (stereo not drawn) [Compound A144-M-B14]	≤ 5.00
O=C(C[C@@H]1CNC(=O)c2cc(-c3cccc(C(F)(F)F)c3)cn21)N[C@H](CO)c1ccccc1 [A133-M-B62 isomer R]	5.32
NC[C@@H](NC(=O)C[C@H]1CNC(=O)c2cc(-c3cccc(F)c3)cn21)c1ccccc1 [A127-M-B65 isomer S]	8.00
O=C(CC1CNC(=O)c2cc(-c3ccccc3F)cn21)NCc1ccncc1 (stereo not drawn) [Compound A128-M-B39]	6.27

Compound	pIC50
O=C(CC1CNC(=O)c2cc(-c3cccc(OC(F)(F)F)c3)cn21)NCc1ccccc1 (stereo not drawn) [Compound A134-M-B14]	6.14
O=C(CC1CNC(=O)c2cc(-c3ccc(F)cc3F)cn21)NCc1ccccc1 (stereo not drawn) [Compound A151-M-B14]	7.00
CN1CCN(C(=O)CC2CNC(=O)c3cc(-c4cccc(F)c4)cn32)C(c2ccccc2)C1 (mixture of isomers) [Compound A127-M-B63]	6.41
O=C(C[C@@H]1CNC(=O)c2cc(-c3cccc(F)c3)cn21)N[C@H](CO)Cc1ccccc1 [A127-M-B64 isomer R]	5.54
O=C(CC1CNC(=O)c2cc(-c3cccc(Cl)c3)cn21)NCc1ccncc1 (stereo not drawn) [Compound A150-M-B39]	6.66
O=C(CC1CNC(=O)c2cc(-c3cccc(Cl)c3)cn21)Nc1ccccc1 (stereo not drawn) [Compound A150-M-B52]	6.37
O=C(C[C@H]1CNC(=O)c2cc(-c3cccc(C(F)(F)F)c3)cn21)N[C@H](CO)c1ccccc1 [A133-M-B62 isomer S]	6.89
O=C(CC1CNC(=O)c2cc(-c3cccc(OC(F)(F)F)c3)cn21)NCc1cccc(F)c1 (stereo not drawn) [Compound A134-M-B30]	6.05
NCC(NC(=O)CC1CNC(=O)c2cc(-c3cc(F)ccc3F)cn21)c1ccccc1 (stereo not drawn) [A158-M-B65 isomer S]	7.52
COC(=O)c1cccc(-c2cc3n(c2)C(CC(=O)NCc2ccccc2)CNC3=O)c1 (stereo not drawn) [Compound A142-M-B14]	5.32
CN1CCN(C(=O)CC2CNC(=O)c3cc(-c4ccnc(F)c4)cn32)C(c2ccccc2)C1 (mixture of isomers) [Compound A157-M-B63]	6.16
C=CCN1CCN(C(=O)CC2CNC(=O)c3cc(-c4cccc(Cl)c4)cn32)CC1 (stereo not drawn) [Compound A150-M-B49]	6.64
O=C(CC1CNC(=O)c2cc(-c3cccc(F)c3)cn21)NCc1ccccc1 (stereo not drawn) [Compound A127-M-B14]	6.74
O=C(CC1CNC(=O)c2cc(-c3cccc(C(F)(F)F)c3)cn21)NCC1CCCCC1 (stereo not drawn) [Compound A133-M-B22]	6.42
O=C(C[C@@H]1CNC(=O)c2cc(-c3cccc(C(F)(F)F)c3)cn21)N[C@H](CO)Cc1ccccc1 [A133-M-B64 isomer R]	5.69
O=C(C[C@@H]1CNC(=O)c2cc(-c3ccnc(F)c3)cn21)N[C@H](CO)Cc1ccccc1 [A157-M-B64 isomer R]	6.15
O=C(CC1CNC(=O)c2cc(-c3ccccc3F)cn21)NCC1CCCCC1 (stereo not drawn) [Compound A128-M-B22]	6.92
O=C(CC1CNC(=O)c2cc(-c3cccc(F)c3)cn21)NCc1cccc(F)c1 (stereo not drawn) [Compound A127-M-B30]	6.72
NC[C@@H](NC(=O)C[C@H]1CNC(=O)c2cc(-c3cccc(C(F)(F)F)c3)cn21)c1ccccc1 [A133-M-B65 isomer S]	7.30
CC(C)CCNC(=O)CC1CNC(=O)c2cc(-c3ccccc3F)cn21 (stereo not drawn) [Compound A128-M-B32]	6.15
O=C(CC1CNC(=O)c2cc(-c3ccccc3F)cn21)NCc1ccccc1 (stereo not drawn) [Compound A128-M-B14]	6.70
O=C(CC1CNC(=O)c2cc(-c3cccc(Cl)c3)cn21)NCC1CC1 (stereo not drawn) [Compound A150-M-B48]	6.92
